Measurements reported in US9796711B2, “Substituted pyrazolo[3,4-b]pyridin-6-carboxylic acids and method of use” (AbbVie S.àr.l., priority 2015, dated 2017).

Experiments:
ΔF508-CFTR [1] = target: T1, ΔF508-CFTR (Homo sapiens, UniProt P13569, DEL508-508); test: CFTR cell surface levels using HRP-tagged ΔF508-CFTR expressing CFBE cells, intrinsic corrector capacity; assay type: cell-based; details: HRP-tagged ΔF508-CFTR CFBE41o- cells, compounds alone (intrinsic corrector capacity), 20 hours at 33° C.; for % Activation: positive control 3 μM corrector; for EC50: read-out: EC50
T1 construct: host or cells: CFBE41o-, doxycycline-inducible
T1 sequence (P13569 with tags, fused parts or gaps DEL508-508): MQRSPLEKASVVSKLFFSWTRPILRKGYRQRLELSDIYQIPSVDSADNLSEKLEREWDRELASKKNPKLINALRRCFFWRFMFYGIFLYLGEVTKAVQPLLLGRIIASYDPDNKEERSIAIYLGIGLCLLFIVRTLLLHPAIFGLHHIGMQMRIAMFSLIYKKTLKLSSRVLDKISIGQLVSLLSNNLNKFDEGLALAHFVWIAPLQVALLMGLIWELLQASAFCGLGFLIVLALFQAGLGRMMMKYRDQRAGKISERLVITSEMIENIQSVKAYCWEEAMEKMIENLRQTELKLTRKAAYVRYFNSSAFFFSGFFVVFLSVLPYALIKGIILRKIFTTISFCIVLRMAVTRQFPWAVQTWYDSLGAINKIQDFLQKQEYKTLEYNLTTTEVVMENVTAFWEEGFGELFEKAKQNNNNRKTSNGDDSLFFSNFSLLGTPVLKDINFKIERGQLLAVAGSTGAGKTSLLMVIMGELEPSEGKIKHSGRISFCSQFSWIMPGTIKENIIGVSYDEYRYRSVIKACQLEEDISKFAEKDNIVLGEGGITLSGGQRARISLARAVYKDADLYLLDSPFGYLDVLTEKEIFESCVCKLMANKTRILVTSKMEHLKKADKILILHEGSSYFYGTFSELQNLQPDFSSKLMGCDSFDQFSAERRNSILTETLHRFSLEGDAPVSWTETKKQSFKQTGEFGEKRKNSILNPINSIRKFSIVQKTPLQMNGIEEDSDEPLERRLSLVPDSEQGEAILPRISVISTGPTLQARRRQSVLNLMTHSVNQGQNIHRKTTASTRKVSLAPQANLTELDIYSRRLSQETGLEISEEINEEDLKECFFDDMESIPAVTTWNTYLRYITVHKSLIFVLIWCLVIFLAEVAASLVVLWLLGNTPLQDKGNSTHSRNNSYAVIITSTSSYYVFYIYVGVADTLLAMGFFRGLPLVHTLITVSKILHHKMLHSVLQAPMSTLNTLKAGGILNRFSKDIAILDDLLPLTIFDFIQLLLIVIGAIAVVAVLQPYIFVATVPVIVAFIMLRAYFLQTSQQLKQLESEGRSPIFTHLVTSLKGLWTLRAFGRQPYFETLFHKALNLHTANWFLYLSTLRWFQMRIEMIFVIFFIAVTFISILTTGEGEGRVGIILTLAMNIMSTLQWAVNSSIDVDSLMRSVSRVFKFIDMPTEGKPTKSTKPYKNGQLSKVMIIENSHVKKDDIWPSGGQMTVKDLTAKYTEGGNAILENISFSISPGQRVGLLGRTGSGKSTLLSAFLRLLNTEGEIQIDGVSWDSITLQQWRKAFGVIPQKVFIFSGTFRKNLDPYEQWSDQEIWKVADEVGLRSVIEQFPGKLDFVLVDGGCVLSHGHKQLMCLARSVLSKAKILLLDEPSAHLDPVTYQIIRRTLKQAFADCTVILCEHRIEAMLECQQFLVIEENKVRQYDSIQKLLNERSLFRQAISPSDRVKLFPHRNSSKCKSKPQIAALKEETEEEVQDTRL
How it was run: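 Here the cells express ΔF508-CFTR with horseradish peroxidase inserted in extracellular loop 4, so only rescued channel at the surface gives luminescent signal. Compounds act on their own, 20 h at the reduced temperature of 33 °C; values are percent activity relative to DMSO and a 3 μM corrector.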

ΔF508-CFTR [2] = target: T1, ΔF508-CFTR; test: CFTR cell surface levels using HRP-tagged ΔF508-CFTR expressing CFBE cells, in the presence of a co-corrector; assay type: cell-based; details: HRP-tagged ΔF508-CFTR expressing CFBE cells, in the presence of 3 μM co-corrector; for EC50: read-out: EC50
How it was run: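 Cells were seeded with 0.5 μg/mL doxycycline and held 68 h at 37 °C. Test compounds plus 3 μM co-corrector (final 0.1% DMSO) were then added for 20 h at 33 °C. Washed cells received HRP substrate, and luminescence was normalized between DMSO and 3 μM co-corrector controls.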

| SMILES | % Activation (ΔF508-CFTR [1]) | EC50 (ΔF508-CFTR [1]) | % Activation (ΔF508-CFTR [2]) | EC50 (ΔF508-CFTR [2]) |
| --- | --- | --- | --- | --- |
| Cc1nn(-c2ccccc2)c2nc(C(=O)O)cc(-c3ccc(N4CC[C@H](C#N)C4)cc3)c12 [compound 155, 4-{4-[(3S)-3-cyanopyrrolidin-1-yl]phenyl}-3-methyl-1-phenyl-1H-pyrazolo[3,4-b]pyridine-6-carboxylic acid] | 203.65% | 1350 nM | 399.6% | 909 nM |
| CC(=O)NC1CCN(c2ccc(-c3cc(C(=O)O)nc4c3c(C)nn4-c3ccccc3)cc2)C1 (stereo not drawn) [compound 156, 4-[4-(3-acetamidopyrrolidin-1-yl)phenyl]-3-methyl-1-phenyl-1H-pyrazolo[3,4-b]pyridine-6-carboxylic acid] | 175.5% | 3340 nM | 411.55% | 3160 nM |
| CC(C)c1nn(-c2cccc(N3CCCC3)c2)c2nc(C(=O)O)cc(-c3ccc(N4CCOCC4)cc3)c12 [compound 157, 4-[4-(morpholin-4-yl)phenyl]-3-(propan-2-yl)-1-[3-(pyrrolidin-1-yl)phenyl]-1H-pyrazolo[3,4-b]pyridine-6-carboxylic acid] | 388.2% | 459 nM | 621% | 485 nM |
| Cc1nn(-c2ccccc2)c2nc(C(=O)O)cc(C(=O)N3CCCCC3)c12 [compound 158, 3-methyl-1-phenyl-4-(piperidine-1-carbonyl)-1H-pyrazolo[3,4-b]pyridine-6-carboxylic acid] | 1.521% | > 10000 nM | 112.2% | > 10000 nM |
| CC(C)c1nn(C2CCC(F)(F)CC2)c2nc(C(=O)O)cc(-c3ccc(N4CCOCC4)cc3)c12 [compound 159, 1-(4,4-difluorocyclohexyl)-4-[4-(morpholin-4-yl)phenyl]-3-(propan-2-yl)-1H-pyrazolo[3,4-b]pyridine-6-carboxylic acid] | 150.16% | 737 nM | 415.33% | 755 nM |
| CC(C)c1nn(-c2cccc(N3CC(C)(C)C3)c2)c2nc(C(=O)O)cc(-c3ccc(N4CCOCC4)cc3)c12 [compound 160, 1-[3-(3,3-dimethylazetidin-1-yl)phenyl]-4-[4-(morpholin-4-yl)phenyl]-3-(propan-2-yl)-1H-pyrazolo[3,4-b]pyridine-6-carboxylic acid] | 318.83% | 447 nM | 544.87% | 329 nM |
| CC(C)c1nn(C2CCCN(CC(F)(F)F)C2)c2nc(C(=O)O)cc(-c3ccc(N4CCOCC4)cc3)c12 (stereo not drawn) [compound 161, 4-[4-(morpholin-4-yl)phenyl]-3-(propan-2-yl)-1-[1-(2,2,2-trifluoroethyl)piperidin-3-yl]-1H-pyrazolo[3,4-b]pyridine-6-carboxylic acid] | 111.83% | 921 nM | 333.87% | 795 nM |
| Cc1cccc(-n2nc(C(C)C)c3c(N4CCCCC4)cc(C(=O)O)nc32)c1 [compound 162, 1-(3-methylphenyl)-4-(piperidin-1-yl)-3-(propan-2-yl)-1H-pyrazolo[3,4-b]pyridine-6-carboxylic acid] | 147.97% | 992 nM | 399.73% | 808 nM |
| CC(C)c1nn([C@@H]2CCC[C@@H](OCc3ccccc3)C2)c2nc(C(=O)O)cc(-c3ccc(N4CCOCC4)cc3)c12 [compound 163, 1-[(1R,3R)-3-(benzyloxy)cyclohexyl]-4-[4-(morpholin-4-yl)phenyl]-3-(propan-2-yl)-1H-pyrazolo[3,4-b]pyridine-6-carboxylic acid] | 232.43% | 525 nM | 554.5% | 423 nM |
| COC1CN(c2cccc(-n3nc(C(C)C)c4c(-c5ccc(N6CCOCC6)cc5)cc(C(=O)O)nc43)c2)C1 [compound 164, 1-[3-(3-methoxyazetidin-1-yl)phenyl]-4-[4-(morpholin-4-yl)phenyl]-3-(propan-2-yl)-1H-pyrazolo[3,4-b]pyridine-6-carboxylic acid] | 359.9% | 675 nM | 608.5% | 375 nM |
| CC(C)c1nn(-c2cccc(N3CCC(F)C3)c2)c2nc(C(=O)O)cc(-c3ccc(N4CCOCC4)cc3)c12 (stereo not drawn) [compound 165, 1-[3-(3-fluoropyrrolidin-1-yl)phenyl]-4-[4-(morpholin-4-yl)phenyl]-3-(propan-2-yl)-1H-pyrazolo[3,4-b]pyridine-6-carboxylic acid] | 350.4% | 794 nM | 533.35% | 515 nM |
| COC(=O)N1CC(c2nn(C3CCCCC3)c3nc(C(=O)O)cc(-c4cnc(N(C)C)nc4)c23)C1 [compound 166, 1-cyclohexyl-4-[2-(dimethylamino)pyrimidin-5-yl]-3-[1-(methoxycarbonyl)azetidin-3-yl]-1H-pyrazolo[3,4-b]pyridine-6-carboxylic acid] | 68.01% | 3340 nM | 241.5% | 3260 nM |
| CC(C)c1nn(-c2cccc(N3CC(F)C3)c2)c2nc(C(=O)O)cc(-c3ccc(N4CCOCC4)cc3)c12 [compound 167, 1-[3-(3-fluoroazetidin-1-yl)phenyl]-4-[4-(morpholin-4-yl)phenyl]-3-(propan-2-yl)-1H-pyrazolo[3,4-b]pyridine-6-carboxylic acid] | 301.1% | 596 nM | 568.2% | 535 nM |
| Cc1nn(-c2ccccc2)c2nc(C(=O)O)cc(-c3ccc(N(C)C4CCOCC4)nc3)c12 [compound 168, 3-methyl-4-{6-[methyl(oxan-4-yl)amino]pyridin-3-yl}-1-phenyl-1H-pyrazolo[3,4-b]pyridine-6-carboxylic acid] | 190.23% | 1290 nM | 379.07% | 697 nM |
| COCCN(C)c1ccc(-c2cc(C(=O)O)nc3c2c(C(C)C)nn3C2CCCCC2)cn1 [compound 170, 1-cyclohexyl-4-{6-[(2-methoxyethyl)(methyl)amino]pyridin-3-yl}-3-(propan-2-yl)-1H-pyrazolo[3,4-b]pyridine-6-carboxylic acid] | 208.6% | 738 nM | 482.4% | 504 nM |
| CC(=O)Nc1ccc(-c2cc(C(=O)O)nc3c2c(C(C)C)nn3C2CCCCC2)cc1 [compound 171, 4-(4-acetamidophenyl)-1-cyclohexyl-3-(propan-2-yl)-1H-pyrazolo[3,4-b]pyridine-6-carboxylic acid] | 199.67% | 1190 nM | 450.73% | 1070 nM |
| COCCN(C)c1cccc(-n2nc(C(C)C)c3c(-c4ccc(N5CCOCC5)cc4)cc(C(=O)O)nc32)c1 [compound 172, 1-{3-[(2-methoxyethyl)(methyl)amino]phenyl}-4[4-(morpholin-4-yl)phenyl]-3-(propan-2-yl)-1H-pyrazolo[3,4-b]pyridine-6-carboxylic acid] | 339.33% | 615 nM | 513.1% | 480 nM |
| Cc1cccc(-n2nc(C(C)C)c3c(N4CCCC4)cc(C(=O)O)nc32)c1 [compound 173, 1-(3-methylphenyl)-3-(propan-2-yl)-4-(pyrrolidin-1-yl)-1H-pyrazolo[3,4-b]pyridine-6-carboxylic acid] | 182.82% | 2950 nM | 380.52% | 2530 nM |
